Source: patent US20140378380A1, “USE OF UNACYLATED GHRELIN, FRAGMENTS AND ANALOGS THEREOF AS ANTIOXIDANT” (Alizé Pharma SAS, priority 2013, published 2014)
Ends that are not written are not given here. * marks the point of attachment. Octanoyl = CCCCCCCC(=O)*

Experiments:
[1] = system: primary SCs; experiment: Primary SCs from normo-perfused muscles subjected to in vitro ischemia; format: cell-based, mice
Protocol: (§1) SCs were isolated from gastrocnemius muscles of C57BL/6J wild type mice subjected to ischemia or C57BL/6J mice lacking the GHSR1a and ghrelin genes (10 mice, kind gift of Professor M. Tschöp)^39. To obtain SCs, muscle samples were subjected to enzymatic digestion as described^45. In selected experiments, SCs were recovered from normo-perfused muscles and subjected to in-vitro ischemia in presence of saline, AG (1 μmol/L) or UAG (1 μmol/L). In-vitro ischemia was induced by incubating cells in DMEM+2% FCS at 5% CO2/95% N2 humidified atmosphere, yielding 1% O2 concentrations for 24 h^18. The in-vitro ischemia was also performed in the presence of SB202190 (1 μmol/L).
(§2) SC cell-cycle progression was evaluated by evaluating the percentage of PCNA-positive cells or by FACS analysis as previously described^46. The percentage of cells in each cell cycle phase was determined by ModFit LT software (Verity Software House. Inc, topsham, ME, USA). Celss proliferation was also assayed by evaluating the percentage of PCNA-positive cells by FACS analysis.
(§3) Cells were lysed and protein detection was obtained as previously described^47. Cells were lysed (50 mmol/L Tris HCl [pH 8.3], 1% Triton X-100, 10 mmol/L PMSF, 100 U/ml aprotinin, 10 μmol/L leupeptin) and protein concentrations were obtained as previously described^47. […] Densitometric analysis was used to calculate the differences in the fold induction of protein levels and normalized to tubulin, a actin or p38MAPK content. Values are reported as relative amount
(§4) Intracellular ROS production was evaluated using DCF-DA (5-(and-6)-carboxy-2′,7′-dichlorofluorescein diacetate, […] final concentration) (Molecular Probe, Invitrogen) assay as previously described^23. The formation of TBARS was determined in muscles using the OXI-TEK kit (ZeptoMetrix Corp.) and a luminescence spectrometer (Bio-Rad Laboratories, Hercules, Calif.) with excitation set at 530 nm, emission at 550 nm to measure in-vivo oxidative stress levels^33.
(§5) Total RNA was isolated using TRIzol reagent (Invitrogen) from SCs recovered from muscles of treated animals or from SCs subjected to in-vitro ischemia. miR-221/222 expression was evaluated by qRT-PCR as previously described^48. Loss-of-function experiments were performed in SCs transfected for 48 h with anti-miRNA negative control, anti-miR-221/222 antagonists (Applied Biosystem, Foxter Cyto CA, USA), according to the manufacturer's instructions^48.
To obtain SOD-2 inactivation, SCs were transiently transfected with siRNA for SOD-2 or with duplex siRNAs (Qiagen, Valencia, Calif., USA) as previously described^44. Transfection was performed according to the manufacturer's instructions. Whole cell extracts were processed 48 h after transfection. Cell viability was evaluated at the end of each experiment. […]

[2] = system: SCs from double KO mice; experiment: SCs from double KO mice (lacking GHSR1a and ghrelin genes) subjected to in vitro ischemia; format: cell-based; conditions: for protection of SCs from ROS generation: DCF-DA
Protocol: as §1, §2, §3, §4

[3] = system: C57BL/6J mice; experiment: Murine hind-limb ischemia model (foot damage score, histology, IF, TBARS); format: in vivo; conditions: for capillary density, ischemic vs contralateral control muscle of the same animals: ischemic vs normo-perfused muscle; for protection against ischemia-induced damage (in vivo effects): overall conclusion; for foot damage (functional score): unilateral hind-limb ischemia, i.p. daily from day 0 to day 21, vs saline
Protocol: (§6) Male C57BL/6J mice (Charles River Lab., Wilmington, Mass., USA) were anesthetized and unilateral hind limb ischemia was induced as described^42. The normo-perfused contralateral limb of each mouse was used as an internal control. After hind-limb ischemia, animals (18 mice per group) were treated by intra-peritoneal injection daily from 0 to day 21 with either saline, AG ([…]) or UAG ([…]). In selected experiments, mice received intramuscular injections of pre-miR oligonucleotides (5 mice/group). To induce toxic damage, 100 μl of 1% barium chloride (BaCl2, Sigma Aldrich) was injected unilaterally into the hind limb (9 mice). Mice were treated according to European Guidelines and policies as approved by the University of Turin Ethical Committee.
Semiquantitative estimation (by repeated measures analyzed with ANOVA and Newman-Keuls Multiple Comparison test) of foot damage was performed serially using the following classification: 3=dragging of foot (foot necrosis), 2=no dragging but no plantar flexion (foot damage), 1=plantar flexion but no toe flexion (toe damage), and 0=flexing the toes to resist gentle traction on the tail (no damage)^43.
(§7) Gastrocnemius muscle sections from ischemic or normo-perfused limbs were stained with hematoxylin and eosin for histological analysis. The proportion of fibers with central nuclei (regenerating fibers) was measured by MetaMorph software (Life Sciences Research Imaging Systems) in the injured area and the cross-sectional areas of the fibers in the injured and non-injured areas. For IF analysis, muscle sections were processed as described previously^44. The number of cells expressing the indicated markers or CD31 positive vessels was evaluated as previously described^34.
as §4

[4] = U.S. Pat. Nos. 8,222,217 and 8,318,664; cited from earlier work
[5] = system: healthy volunteers; conditions: administered concomitantly in healthy volunteers; cited from earlier work
[6] = target: GHSR-1a (Homo sapiens, UniProt Q92847); conditions: cited from earlier work
[7] = system: GH secretion; conditions: cited from earlier work
[8] = system: satellite cells (SCs); experiment: SCs recovered from ischemic muscles of treated mice (count, Western blot, DCF-DA, qRT-PCR); format: in vivo
Protocol: as §6, §1, §3, §4, §5

[9] = system: C2C12 mouse muscular cell line; experiment: ROS production (DCF-DA) in C2C12 cells subjected to oxidative stress; format: cell-based; conditions: for protective effect on C2C12 cells against oxidative stress: oxidative stress by hypoxia, AGEs, hyperglycemia or H2O2, 1 μmol/L; for retention of the functions of UAG: results provided herein
Protocol: Kinetic analysis of ROS production was evaluated by using DCF-DA (5-(and-6)-carboxy-2′,7′-dichlorofluorescein diacetate, 0.5 μmol/L final concentration) (Molecular Probe, Invitrogen) assay. C2C12 cells were cultured with 400 μg/ml Advanced Glycated End-product (AGE) or 25 mM glucose (high glucose HG) for 48 h, H2O2 (100 μM) for 2 h. In parallel experiments C2C12 cells were subjected to hypoxia (DMEM+2% FCS in a 5% CO2-95% N2 humidified atmosphere, yielding to 1% O2 concentrations for 24 h). UAG (1 μmol/L) AZP 531 (1 μmol/L) or AZP-502 (1 μmol/L) was added where indicated.

[10] = system: endothelial progenitor cells (EPCs); conditions: cited from earlier work
[11] = system: C57BL/6J mice; experiment: Toxic damage induced by 1% barium chloride (BaCl2) in gastrocnemius muscle; format: in vivo; conditions: 1% BaCl2 injected into hind limb
Protocol: as §6, §7

[12] = SB202190 1 μmol/L added, in vitro ischemia
[13] = SOD-2 silenced using siRNA, in vitro ischemia
[14] = in vitro ischemia 1% O2 24 h, 1 μmol/L

Chain of GHSR-1a (Q92847 whole entry): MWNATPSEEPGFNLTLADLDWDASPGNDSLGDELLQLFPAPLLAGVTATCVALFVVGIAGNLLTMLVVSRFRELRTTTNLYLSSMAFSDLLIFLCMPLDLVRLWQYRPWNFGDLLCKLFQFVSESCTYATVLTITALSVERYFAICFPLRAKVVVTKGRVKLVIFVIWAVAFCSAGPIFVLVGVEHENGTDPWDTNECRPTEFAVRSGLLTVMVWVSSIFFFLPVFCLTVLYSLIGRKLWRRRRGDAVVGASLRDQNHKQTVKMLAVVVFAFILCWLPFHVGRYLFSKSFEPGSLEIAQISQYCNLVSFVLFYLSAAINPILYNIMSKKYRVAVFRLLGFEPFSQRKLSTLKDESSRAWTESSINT

## Oc1ccc(-c2nc(-c3ccncc3)c(-c3ccc(F)cc3)[nH]2)cc1 [SB202190, reference compound]
[1]; [12]
  MyoD and myogenin expression in SCs exposed to UAG: prevented MyoD and myogenin expression
  cell-cycle entry of SCs exposed to UAG: blocked cell-cycle entry

## AG: 28 amino acid peptide characterized by the presence of an n-octanoyl modification on the Ser3 residue (GSS(Octanoyl)FLSPEHQRVQQRKESKKPPAKLQPR; UniProt Q9UBU3 24-51, looked up) [reference compound]
[2]
  protection of SCs from ROS generation: unlike AG
[3]; gastrocnemius muscle
  concentration of TBARS in ischemic muscles: Significant increases
[3]
  capillary density, ischemic vs contralateral control muscle of the same animals: significantly lower capillary density
  protection against ischemia-induced damage (in vivo effects): failure to detect in vivo effects
  foot damage (functional score): significantly higher

## EHQRVQ [UAG (8-13)]
[4]
  activity on glucose, insulin and lipid metabolisms relative to UAG full length: retain the activity of UAG full length

## Glu-His-Gln-Arg (EHQR; listed as Homo sapiens) [UAG (8-11)]
[4]
  activity on glucose, insulin and lipid metabolisms relative to UAG full length: retain the activity of UAG full length

## Glu-His-Gln-Arg-Val (EHQRV; listed as Homo sapiens) [UAG (8-12)]
[4]
  activity on glucose, insulin and lipid metabolisms relative to UAG full length: retain the activity of UAG full length

## Gly-Ser-Ser-Phe-Leu-Ser-Pro-Glu-His-Gln-Arg-Val-Gln-Gln-Arg-Lys-Glu-Ser-Lys-Lys-Pro-Pro-Ala-Lys-Leu-Gln-Pro-Arg (GSSFLSPEHQRVQQRKESKKPPAKLQPR; listed as Homo sapiens) [UAG]
[2]
  SC cell-cycle progression: only UAG promoted SC cell-cycle progression
  SOD-2 expression: induced SOD-2 expression
  p-p38/MAPK, Pax-7, MyoD, Myf5 and myogenin expression: induced
  protection of SCs from ROS generation: protected SCs from ROS generation
[5]
  hyperglycemic effects of ghrelin: prevent the hyperglycemic effects of ghrelin
[6]
  binding to GHSR-1a: fails to bind
[7]
  effect on GH secretion: no physiological effect on GH secretion
[8]; DCF-DA assay
  ROS production in SCs from treated mice: lower
[8]; SCs from treated mice, Western blot
  levels of phospho(p)-p38/MAPK protein in SCs: found to be higher
[8]; Western blot
  SOD-2 protein expression in SCs from treated mice: higher
  levels of p57kip2 protein in SCs from treated mice: reduced
[8]; ischemic muscles of treated mice
  number of Pax-7/MyoD/Myf5+ SCs isolated and counted ex vivo: significantly increased number
[8]; qRT-PCR, compared to controls
  expression of miR-221 and miR-222 in SCs recovered from muscles of treated mice: significantly increased
[9]
  protective effect on C2C12 cells against oxidative stress: have a protective effect
[10]
  protection of EPCs from oxidative stress (ROS generation): only UAG protects endothelial progenitor cells (EPCs) from oxidative stress
[3]; day 7
  number of Pax-7/MyoD+ cells in ischemic muscles: increased number of Pax-7/MyoD+ cells
[3]; day 21
  Pax-7/MyoD+ cells in ischemic muscles: scattered Pax-7/MyoD+ cells were still present
[3]; double immunostaining, day 7
  number of SOD-2/Pax-7+ cells in ischemic muscle: increased number of SOD-2/Pax-7+ cells
[3]; ischemic muscle
  number of CD68-positive inflammatory cells: reduced number of CD68-positive inflammatory cells
  number of regenerating myofibers in gastrocnemius muscles: increased number of regenerating myofibers
[3]; ischemic muscles
  number of myogenin-positive cells in ischemic muscles: increased number of myogenin-positive cells
[3]; ischemic muscles, compared to the other groups
  number of functional vessels in ischemic muscles: larger number of functional vessels
[3]
  capillary density, ischemic vs contralateral control muscle of the same animals: no such differences were observed
  protection against ischemia-induced damage (in vivo effects): appears to protect against ischemia-induced damage
  foot damage (functional score): damage was significantly higher in saline- and AG-treated groups than in the UAG-treated group
[11]
  regeneration of skeletal muscle after BaCl2 (ROS-independent damage): regeneration of skeletal muscle was no longer observed
[1]; SCs transfected with anti-miR-221/222 antago-miRs (data not shown)
  cell-cycle entry or expression of SOD-2, Pax-7, MyoD, or myogenin: no longer had any effect
[1]; SCs transfected with anti-miR-221/222 antago-miRs, UAG (data not shown)
  p-p38/MAPK levels: p-p38/MAPK levels were reduced
[1]; SOD-2 knock-down, in vitro ischemia
  UAG-induced miR-221/222 expression: prevents UAG-induced miR-221/222 expression
[1]; [13]
  cell-cycle progression: did not undergo cell-cycle progression
  p38/MAPK phosphorylation: did not induce p38/MAPK phosphorylation
  protection of SCs against ROS generation: did not protect SCs against ROS generation
[1]; [14]
  expression of Pax-7, MyoD: induced expression
  expression of myogenin: induced expression
  levels of pp38/MAPK: increased levels
[1]; in vitro ischemia, DCF-DA
  ROS production: ROS production was decreased
[1]; in vitro ischemia, FACS
  PCNA expression: increased PCNA expression
  number of cells in S phase: increased
[1]; in vitro ischemia, Western blot
  SOD-2 expression: SOD-2 expression increased

## His-Gln-Arg (HQR; listed as Homo sapiens) [UAG (9-11)]
[4]
  activity on glucose, insulin and lipid metabolisms relative to UAG full length: retain the activity of UAG full length

## His-Gln-Arg-Val (HQRV; listed as Homo sapiens) [UAG (9-12)]
[4]
  activity on glucose, insulin and lipid metabolisms relative to UAG full length: retain the activity of UAG full length

## SPEHQRVQ [UAG (6-13)]
[4]
  activity on glucose, insulin and lipid metabolisms relative to UAG full length: retain the activity of UAG full length
[9]
  protective effect on C2C12 cells against oxidative stress: have a protective effect
  retention of the functions of UAG: retain the functions of UAG

## Ser-Pro-Glu-His-Gln-Arg-Val-Gln (cycl) (SPEHQRVQ; cyclic; (1)..(8) Cyclic; listed as Homo sapiens) [UAG(6-13)cyclic]
[9]
  protective effect on C2C12 cells against oxidative stress: have a protective effect
  retention of the functions of UAG: retain the functions of UAG
